Data set [1] is described as follows: 19F spin-lattice relaxation time (T1) measurement by inversion recovery method, 500 MHz NMR. Format: physicochemical. The settings on record: 5 mM/CDCl3, 36° C. How it is done:
(§1) For each of the compounds of Examples 1 to 10, Comparative Example 1, and Comparative Example 2 obtained as above, a ^19F spin-lattice relaxation time (T1) and a ^19F spin-spin relaxation time (T2) were measured by the following method.
The compound was dissolved in a deuterated chloroform solution at a concentration of 5 mM, and the longitudinal relaxation time (T1) of the ^19F nucleus was measured using a 500 MHz NMR device by an inversion recovery method under the conditions described below.
• NMR device: JNM-ECA500 (manufactured by JOEL) • Measurement temperature: 36° C. • Pulse sequence: double_pulse • relaxation_delay: 10 [s] • tau_interval: 4, 3, 2, 1, 0.8, 0.6, 0.4, 0.2, 0.1 [s], 80, 60, 40, 20, 10, 8, 6, 4, 2 [ms] • Accumulated number of times: 128 times

Data set [2] in a line: 19F spin-spin relaxation time (T2) measurement by CPMG method, 500 MHz NMR. The note with it: 5 mM/CDCl3, 36° C. Format: physicochemical. How it is done:
as §1
The compound was dissolved in a deuterated chloroform solution at a concentration of 5 mM, and the transverse relaxation time (T2) of the ^19F nucleus was measured using a 500 MHz NMR device by a Carr-Purcell-Meiboom-Gill (CPMG) method under the conditions described below.
• NMR device: JNM-ECA500 (manufactured by JOEL) • Measurement temperature: 36° C. • relaxation_delay: 10 [s] • tau_step: 1 [ms] • relaxation_delay: 1, 2, 3, 4, 5, 6, 8, 9, 10, 25, 50, 75 [ms], 0.10, 0.25, 0.50, 0.75, 1.00, 1.25, 1.50, 1.75, 2.00 [s] • Accumulated number of times: 128 times

As to “4-(3-((1,1,1,3,3,3-hexafluoro-2-(trifluoromethyl)propan-2-yl)oxy)-2,2-bis(((1,1,1,3,3,3-hexafluoro-2-(trifluoromethyl)propan-2-yl)oxy)methyl)propoxy)-2,2,6,6-tetramethylpiperidin-1-oxyl [Compound 11]”, in data set [1], the “T1 (19F spin-lattice relaxation time)” value turned out to be 0.077 s. For the same compound, the “T2 (19F spin-spin relaxation time)” value in data set [2] is 0.057 s.
Consider `CCC1(CC)CC(OCCOCC(COC(C(F)(F)F)(C(F)(F)F)C(F)(F)F)(COC(C(F)(F)F)(C(F)(F)F)C(F)(F)F)COC(C(F)(F)F)(C(F)(F)F)C(F)(F)F)CC(CC)(CC)N1O` [Compound 15], for which, in data set [1], the “T1 (19F spin-lattice relaxation time)” value was determined as 0.145 s. Also, the “T2 (19F spin-spin relaxation time)” value in data set [2] worked out at 0.092 s.
On to “1,3-Bis(2,2,2-trifluoro-1,1-bis(trifluoromethyl(ethoxy)-2,2-bis((2,2,2-trifluoro-1,1-bis(trifluoromethyl)ethoxy)methyl)propane [Compound A1, reference compound]”, for which, in data set [1], the “T1 (19F spin-lattice relaxation time)” value amounted to 1.380 s. Also, in data set [2], the “T2 (19F spin-spin relaxation time)” value stood at 1.270 s.
Taken in the same sequence, the figures for `CCC1(CC)CC(OCCCOCC(COC(C(F)(F)F)(C(F)(F)F)C(F)(F)F)(COC(C(F)(F)F)(C(F)(F)F)C(F)(F)F)COC(C(F)(F)F)(C(F)(F)F)C(F)(F)F)CC(CC)(CC)N1O` [Compound 17] were 0.172 s and 0.108 s.
`CC1(C)CC(OCCCCCCCCCCCCOCC(COC(C(F)(F)F)(C(F)(F)F)C(F)(F)F)(COC(C(F)(F)F)(C(F)(F)F)C(F)(F)F)COC(C(F)(F)F)(C(F)(F)F)C(F)(F)F)CC(C)(C)N1O` [Compound 20]: the “T1 (19F spin-lattice relaxation time)” value in data set [1] turned out to be 0.612 s. The “T2 (19F spin-spin relaxation time)” value in data set [2] came to 0.390 s.
With `CC1(C)CC(OCCCCCCOCC(COC(C(F)(F)F)(C(F)(F)F)C(F)(F)F)(COC(C(F)(F)F)(C(F)(F)F)C(F)(F)F)COC(C(F)(F)F)(C(F)(F)F)C(F)(F)F)CC(C)(C)N1O` [Compound 18], the “T1 (19F spin-lattice relaxation time)” value in data set [1] is 0.428 s. Further, in data set [2], the “T2 (19F spin-spin relaxation time)” value was found to be 0.274 s.
As to `CC1(C)CC(OCCOCC(COC(C(F)(F)F)(C(F)(F)F)C(F)(F)F)(COC(C(F)(F)F)(C(F)(F)F)C(F)(F)F)COC(C(F)(F)F)(C(F)(F)F)C(F)(F)F)CC(C)(C)N1O` [Compound 14], the “T1 (19F spin-lattice relaxation time)” value in data set [1] stood at 0.153 s. Also, the “T2 (19F spin-spin relaxation time)” value in data set [2] was 0.101 s.
The matching figures for `CC1(C)CC(OCCCCCCCCCOCC(COC(C(F)(F)F)(C(F)(F)F)C(F)(F)F)(COC(C(F)(F)F)(C(F)(F)F)C(F)(F)F)COC(C(F)(F)F)(C(F)(F)F)C(F)(F)F)CC(C)(C)N1O` [Compound 19]: 0.520 s and 0.332 s.
The matching figures for `CCC1(CC)CC(OCC(COC(C(F)(F)F)(C(F)(F)F)C(F)(F)F)(COC(C(F)(F)F)(C(F)(F)F)C(F)(F)F)COC(C(F)(F)F)(C(F)(F)F)C(F)(F)F)CC(CC)(CC)N1O` [Compound 12, 4-(3-((1,1,1,3,3,3-hexafluoro-2-(trifluoromethyl)propan-2-yl)oxy)-2,2-bis(((1,1,1,3,3,3-hexafluoro-2-(trifluoromethyl)propan-2-yl)oxy)methyl)propoxy)-2,2,6,6-tetraethylpiperidin-1-oxyl]: 0.070 s and 0.049 s.
For the compound “4-(3-((1,1,1,3,3,3-hexafluoro-2-(trifluoromethyl)propan-2-yl)oxy)-2-(((1,1,1,3,3,3-hexafluoro-2-(trifluoromethyl)propan-2-yl)oxy)methyl)-2-methylpropoxy)-2,2,6,6-tetramethylpiperidin-1-oxyl [Compound 13]”, the “T1 (19F spin-lattice relaxation time)” value in data set [1] is 0.071 s. In data set [2], the “T2 (19F spin-spin relaxation time)” value came out at 0.050 s.
As to `CC1(C)CC(OCCCOCC(COC(C(F)(F)F)(C(F)(F)F)C(F)(F)F)(COC(C(F)(F)F)(C(F)(F)F)C(F)(F)F)COC(C(F)(F)F)(C(F)(F)F)C(F)(F)F)CC(C)(C)N1O` [Compound 16], the “T1 (19F spin-lattice relaxation time)” value in data set [1] worked out at 0.183 s. Moreover, the “T2 (19F spin-spin relaxation time)” value in data set [2] stood at 0.120 s.
